# According to patent publication US11795190B2, “D-glycero-B-D-heptose 1-phosphate (HMP) conjugates and use for targeted immune modulation” (NATIONAL RESEARCH COUNCIL OF CANADA, priority 2017, dated 2023):
# Columns and labels:
# [1] = system: HCT 116 cells deficient in TIFA protein expression (TIFA KO); assay: IL-8 ELISA in TIFA knockout HCT 116 cells; assay type: cell-based, human; settings: TIFA KO HCT 116
# Experimental: (§1) Wild type (WT) or TIFA knockout (TIFA KO) cells were treated with compounds in the presence of digitonin for 20 min, treatment was removed, cells were washed and then cultured in normal medium without the synthetic compounds for 6 hr before IL-8 levels in culture supernatants were measured by ELISA. (A) Cells were treated with water or 10 μg/mL of the indicated compound. Data are means±standard error mean of technical triplicates. (B) Cells were treated with the NOD1 agonist C12-iE-DAP (39.8 μM) or with two different molar concentrations of compounds (30 μM or 150 μM). Two batches of dd-β-HBP and dd-β-HMP synthesized independently of one another were tested (batch #1 and batch #2) to assess consistency of the chemical synthesis. Data are means±standard error mean of two (150 μM treatment) or three (all other treatments) independent experiments. Nod1 agonist: C12-iE-DAP (20 μg/ml, 39.8 μM); JS-12: D-glycero-D-manno-heptose; JS-2: D-glycero-D-manno-heptose 7-phosphate; JS-7:D-glycero-β-D-manno-heptose-phosphate; JS-8: d-glycero-α-d-manno-heptose-phosphate; JS-9: β-d-mannose phosphate; JS-6:d-glycero-β-d-manno heptose 1,7-biphosphate; JS-5: d-glycero-α-d-manno heptose 1,7-biphosphate.
# (§2) FIG. 11. Stimulation of human colonic epithelial cells by compounds/products according to the invention. Human colonic epithelial cells (HCT 116) that were either wild type (WT) or deficient in TIFA protein expression (knockout, KO) were stimulated for 20 minutes in permeabilization buffer (5 μg/mL digitonin) in the presence of water or 10 μg/mL, 30 μg/mL, or 50 μg/mL of indicated synthetic compounds according to the invention. Treatment was removed, cells were washed, and cells were incubated for 6 hours in complete media before IL-8 levels in culture supernatants was measured by ELISA. The results are the mean±standard error of the mean of three technical replicates. JS-10: 7-O-(Aminoethyl)-D-glycero-β-D-manno-heptopyranose phosphate; JS-11: 7-O-(Aminoethyl) -D-glycero-D-manno-heptopyranose; JS-12: D-glycero-D-manno-heptose; Js-13: pH-Rhodo -7-O-(aminoethyl)-D-glycero-β-D-manno-heptopyranose phosphate.
# (§3) FIG. 13. Stimulation of human colonic epithelial cells by compounds/products according to the invention. Human colonic epithelial cells (HCT 116) that were either wild type (WT) or deficient in TIFA protein expression (knockout, TIFA KO) were stimulated for 20 minutes in permeabilization buffer (5 μg/mL digitonin) in the presence of water, 20 μg/mL of the Nod1 agonist C12-iE-DAP (39.8 μM, which induces inflammation in a TIFA-independent manner) or 30 μM or 150 μM of synthetic compound according to the invention. Treatment was removed, cells were washed, and cells were incubated for 6 hours in complete media before IL-8 levels in culture supernatants were measured by ELISA. The results are the mean±standard error of the mean of two (150 μM treatment) or three (all other treatments) independent experiments. #=none detected, JS-10: 7-O-(Aminoethyl)-d-glycero-β-d-manno-heptopyranose phosphate; JS-14: Biotin-7-O-(aminoethyl)-d-glycero-β-d-manno-heptopyranose phosphate, Nod1 agonist: C12-iE-DAP (20 μg/ml, 39.8 μM).
# as §3, with “16.” for “13.”, “of” for “of the mean of two (150 μM treatment) or”, “technical replicates. […]” for “(all other treatments) independent experiments. #=none detected, JS-10: 7-O-(Aminoethyl)-d-glycero-β-d-manno-heptopyranose phosphate; JS-14: Biotin-7-O-(aminoethyl)-d-glycero-β-d-manno-heptopyranose phosphate, Nod1 agonist: C12-iE-DAP (20 μg/ml, 39.8 μM).”
# [2] = system: TIFA knockout (TIFA KO) HEK 293T cells encoding an NF-κB-driven luciferase reporter gene; assay: NF-κB-driven luciferase reporter assay in TIFA knockout HEK 293T cells; assay type: cell-based, human; settings: TIFA KO cells
# Experimental: FIGS. 10A-B. Effect of chemically synthesised analogues on human embryonic kidney cells (HEK 293T) encoding an NF-κB-driven luciferase reporter gene. NF-κB luciferase activity was measured in wild type (WT) or TIFA knockout (TIFA KO) cells treated with compounds in the presence of digitonin for 20 min, washed, and then cultured in normal medium without the synthetic compounds for 6 hrs after treatment, before luciferase activity was measured. (A) Cells were treated with 10 μg/mL of the indicated compound. Data are means±standard error mean of technical triplicates. (B) Cells were treated with two different molar concentrations of compound (30 μM or 150 μM). Two batches of DD-β-HBP and DD-β-HMP synthesized independently of one another were tested (batch #1 and batch #2) to assess consistency of the chemical synthesis. Data are means±standard error mean of technical triplicates and are representative of three independent experiments. JS-12: D-glycero-D-manno-heptose; JS-2: D-glycero-D-manno-heptose 7-phosphate; JS-7:D-glycero-β-D-manno-heptose-phosphate; JS-8: D-glycero-α-D-manno-heptose-phosphate; JS-9: β-D-mannose phosphate; JS-6:D-glycero-β-D-manno heptose 1,7-biphosphate; JS-5: D-glycero-α-D-manno heptose 1,7-biphosphate.
# [3] = system: human macrophage cells (THP-1); assay: IL-8 ELISA in THP-1 cells after digitonin-permeabilised stimulation; assay type: cell-based; settings: FIG. 15, higher (150 μM) concentrations, digitonin 20 min, IL-8 after 6 hours
# Experimental: FIG. 15. Stimulation of human macrophages by compounds/products according to the invention. Human macrophage cells (THP-1) were stimulated for 20 minutes in permeabilization buffer (5 μg/mL digitonin) in the presence of water, 39.8 μM of the Nod1 agonist C12-iE-DAP (which stimulates in a TIFA-independent manner), or either 30 μM or 150 μM of synthetic compound according to the invention. Treatment was removed, cells were washed, and cells were incubated for 6 hours in complete media before the IL-8 levels in culture supernatants were measured by ELISA. The results are the mean and standard error of the mean of three technical replicates. Nod1 agonist: C12-iE-DAP (20 μg/ml, 39.8 μM); JS-7: JS-7:D-glycero-β-D-manno-heptose-phosphate; JS-10: 7-O-(Aminoethyl)-D-glycero-β-D-manno-heptopyranose phosphate; JS-14: Biotin-7-O-(aminoethyl)-D-glycero-β-D-manno-heptopyranose phosphate.
# [4] = system: human colonic epithelial cells (HCT 116), wild type; assay: IL-8 ELISA in wild type HCT 116 cells after digitonin-permeabilised stimulation; assay type: cell-based; settings: FIG. 11; WT HCT 116; 10, 30 or 50 μg/mL, digitonin 20 min, IL-8 after 6 hours
# Experimental: as §1, §2
# FIG. 13. […] Treatment was removed, cells were washed, and cells were incubated for 6 hours in complete media before IL-8 levels in culture supernatants were measured by ELISA. The results are the mean±standard error of the mean of two (150 μM treatment) or three (all other treatments) independent experiments. #=none detected, JS-10: 7-O-(Aminoethyl)-d-glycero-β-d-manno-heptopyranose phosphate; JS-14: Biotin-7-O-(aminoethyl)-d-glycero-β-d-manno-heptopyranose phosphate, Nod1 agonist: C12-iE-DAP (20 μg/ml, 39.8 μM).
# FIG. 16. […] Treatment was removed, cells were washed, and cells were incubated for 6 hours in complete media before IL-8 levels in culture supernatants were measured by ELISA. […]
compound,measurement,setting,value
"NCCOC[C@@H](O)C1O[C@@H](OP(=O)([O-])[O-])C(O)[C@@H](O)[C@@H]1O.[Na+].[Na+] (stereo partly drawn) [JS-10a, 7-O-(Aminoethyl)-D-glycero-β-D-manno-heptopyranose phosphate]","activity in TIFA KO cells (IL-8), TIFA dependence","[1]; FIG. 11, 10, 30 or 50 μg/mL",relative absence of activity
same,"activity in TIFA KO cells (IL-8), TIFA dependence","[1]; FIG. 13, 30 μM or 150 μM (Nod1 agonist 39.8 μM)",relative absence of activity
same,"activity in TIFA KO cells (NF-κB luciferase), TIFA dependence","[2]; FIG. 12, 10, 30 or 50 μg/mL",relative absence of activity
same,"activity in TIFA KO cells (NF-κB luciferase), TIFA dependence","[2]; FIG. 14, 30 μM or 150 μM",relative absence of activity
same,inflammatory response (IL-8 in culture supernatant),[3],stimulate an inflammatory response
same,inflammatory response (IL-8 in culture supernatant),[4],modest inflammatory response
